Assay results from patent US10875860B2, “Azaindenoisoquinoline compounds and uses thereof” (Purdue Research Foundation, priority 2016, dated 2020).
Like-named read-outs stand apart in the source and are kept apart here.

Tests used:
Top1 = biological target: T1, Top1 (Homo sapiens, UniProt P11387); test: Top1-mediated DNA cleavage assay; format: biochemical; set-up: Top1 inhibitory activity level / Top1 inhibitory activity score: key to the marks not given beside the values; conditions: for Enzyme Inhibitory Activity Top1: DNA cleavage relative to 1 μM MJ-III-65 (19) and 1 μM camptothecin (18), Table 1; for Top1 inhibitory activity level: series 1
T1 sequence (P11387 1-765): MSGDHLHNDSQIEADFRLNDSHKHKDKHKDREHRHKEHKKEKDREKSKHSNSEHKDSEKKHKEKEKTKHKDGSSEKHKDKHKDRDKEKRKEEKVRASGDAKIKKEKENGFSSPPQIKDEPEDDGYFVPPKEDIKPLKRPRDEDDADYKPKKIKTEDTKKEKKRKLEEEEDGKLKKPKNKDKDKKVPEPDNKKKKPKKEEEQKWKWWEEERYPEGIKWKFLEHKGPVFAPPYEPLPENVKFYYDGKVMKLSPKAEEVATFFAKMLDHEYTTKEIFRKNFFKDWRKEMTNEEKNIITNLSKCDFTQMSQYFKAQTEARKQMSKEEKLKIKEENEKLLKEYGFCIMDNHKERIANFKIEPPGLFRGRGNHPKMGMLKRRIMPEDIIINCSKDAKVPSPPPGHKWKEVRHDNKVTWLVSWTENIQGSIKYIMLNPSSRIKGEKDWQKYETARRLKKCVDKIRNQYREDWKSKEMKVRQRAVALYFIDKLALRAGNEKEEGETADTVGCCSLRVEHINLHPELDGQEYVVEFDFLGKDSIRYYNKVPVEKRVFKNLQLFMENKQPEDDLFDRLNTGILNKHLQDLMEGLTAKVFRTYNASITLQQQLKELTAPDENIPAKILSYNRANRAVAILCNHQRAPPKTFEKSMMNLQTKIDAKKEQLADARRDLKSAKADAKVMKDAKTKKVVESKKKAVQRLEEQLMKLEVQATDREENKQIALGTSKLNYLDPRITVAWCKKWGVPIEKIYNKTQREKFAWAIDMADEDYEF

Tdp1 = Tdp1 (Homo sapiens, UniProt Q9NUW8); test: Recombinant Tdp1 assay; format: biochemical; conditions: semiquantitative scale, in duplicate; Table 1; read-out: Enzyme Inhibitory Activity Tdp1
recombinant human TDP2 = biological target: T2, recombinant human TDP2 (Homo sapiens, UniProt O95551); test: Recombinant Tdp2 assay; format: biochemical; conditions: semiquantitative scale, in duplicate; Table 1; read-out: Enzyme Inhibitory Activity Tdp2
T2 sequence (O95551 1-362): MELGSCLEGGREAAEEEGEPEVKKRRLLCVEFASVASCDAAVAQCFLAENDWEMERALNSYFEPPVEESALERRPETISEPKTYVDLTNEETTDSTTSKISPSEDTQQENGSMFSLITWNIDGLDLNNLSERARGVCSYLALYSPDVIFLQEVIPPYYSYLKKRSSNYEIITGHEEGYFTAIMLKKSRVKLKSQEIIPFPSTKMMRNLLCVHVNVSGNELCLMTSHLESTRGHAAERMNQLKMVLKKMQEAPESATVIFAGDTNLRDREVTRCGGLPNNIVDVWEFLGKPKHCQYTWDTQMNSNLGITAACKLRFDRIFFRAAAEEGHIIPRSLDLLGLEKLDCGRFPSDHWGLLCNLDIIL
Procedure: TDP2 reactions were carried out as described previously with the following modifications. […] Reactions were terminated and treated similarly to whole-cell extract and recombinant Tdp1 reactions (see previous paragraph).

SN12C = test: NCI-60 cytotoxicity, SN12C; conditions: Homo sapiens, read-out: Cytotoxicity (GI50) Renal SN12C
MCF-7 = test: NCI-60 cytotoxicity, MCF-7; conditions: Homo sapiens, MCF7, read-out: Cytotoxicity (GI50) Breast MCF-7
HOP-62 = test: NCI-60 cytotoxicity, HOP-62; conditions: Homo sapiens, HOP-62, read-out: Cytotoxicity (GI50) Lung HOP-62
SF-539 = test: NCI-60 cytotoxicity, SF-539; conditions: Homo sapiens, SF-539, read-out: Cytotoxicity (GI50) CNS SF-539
UACC-62 = test: NCI-60 cytotoxicity, UACC-62; conditions: Homo sapiens, UACC-62, read-out: Cytotoxicity (GI50) Melanoma UACC-62
OVCAR-3 = test: NCI-60 cytotoxicity, OVCAR-3; conditions: Homo sapiens, OVCAR-3, read-out: Cytotoxicity (GI50) Ovarian Ovcar-3
[1] = test system: NCI-60 panel of human cancer cell lines; test: NCI-60 screen, mean graph midpoint over all cell lines; conditions: Homo sapiens
[2] = read-out: Cytotoxicity (GI50) MGM

Tdp1, sequence (Q9NUW8 whole entry): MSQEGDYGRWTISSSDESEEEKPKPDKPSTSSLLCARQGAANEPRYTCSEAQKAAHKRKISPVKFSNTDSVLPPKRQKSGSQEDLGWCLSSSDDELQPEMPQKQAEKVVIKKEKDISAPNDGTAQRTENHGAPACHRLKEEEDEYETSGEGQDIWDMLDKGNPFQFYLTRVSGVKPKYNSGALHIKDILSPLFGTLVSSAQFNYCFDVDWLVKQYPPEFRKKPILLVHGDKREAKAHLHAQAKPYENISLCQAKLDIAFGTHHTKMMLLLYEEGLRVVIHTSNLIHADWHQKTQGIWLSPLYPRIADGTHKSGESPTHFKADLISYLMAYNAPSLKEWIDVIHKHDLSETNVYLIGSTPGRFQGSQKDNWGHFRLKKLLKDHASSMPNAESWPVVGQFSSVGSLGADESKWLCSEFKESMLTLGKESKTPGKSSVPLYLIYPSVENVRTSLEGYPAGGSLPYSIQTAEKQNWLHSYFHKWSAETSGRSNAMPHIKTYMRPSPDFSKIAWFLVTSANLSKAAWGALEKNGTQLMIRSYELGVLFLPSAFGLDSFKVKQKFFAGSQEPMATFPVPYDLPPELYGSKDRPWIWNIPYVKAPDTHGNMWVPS

Compound: COc1cnc2c(c1)C(=O)c1c-2n(CCCBr)c(=O)c2cc([N+](=O)[O-])ccc12 [Compound 7, 7-Aza-6-(3-bromopropyl)-5,6-dihydro-9-methoxy-3-nitro-5,11-dioxo-11H-indeno[1,2-c]isoquinoline]
- Enzyme Inhibitory Activity Top1 (Top1): ++
- Top1 inhibitory activity level (Top1): ++
- IC50 (Tdp1): 12000 to 37000 nM
- IC50 (recombinant human TDP2): 37000 to 111000 nM
- melting point: 170 to 172 °C
- GI50 (SN12C): 269 nM
- GI50 (MCF-7): 46 nM
- GI50 (HOP-62): 58 nM
- GI50 (SF-539): 279 nM
- GI50 (UACC-62): 82 nM
- GI50 (OVCAR-3): 248 nM
- GI50 [1, 2]: 112 nM

Compound: COc1cnc2c(c1)C(=O)c1c-2n(CCCN2CCCC2)c(=O)c2cc([N+](=O)[O-])ccc12 [Compound 8, 7-Aza-5,6-dihydro-6-[3-(4-pyrrolidine-1-yl)propyl]-9-methoxy-3-nitro-5,11-dioxo-11H-indeno[1,2-c]isoquinoline]
- Enzyme Inhibitory Activity Top1 (Top1): ++
- Top1 inhibitory activity level (Top1): ++
- IC50 (Tdp1): 1000 to 12000 nM
- IC50 (recombinant human TDP2): 37000 to 111000 nM
- melting point: 248 to 250 °C
- GI50 (SN12C): 36 nM
- GI50 (MCF-7): < 10 nM
- GI50 (HOP-62): < 10 nM
- GI50 (SF-539): 31 nM
- GI50 (UACC-62): 15 nM
- GI50 (OVCAR-3): 59 nM
- GI50 [1, 2]: 45 nM

Compound: COc1cnc2c(c1)C(=O)c1c-2n(CCCN2CCN(C)CC2)c(=O)c2cc([N+](=O)[O-])ccc12 [Compound 9, 7-Aza-5,6-dihydro-6-[3-(3H-methylpiperazine-1-yl)propyl]-9-methoxy-3-nitro-5,11-dioxo-11H-indeno[1,2-c]isoquinoline]
- Enzyme Inhibitory Activity Top1 (Top1): ++
- Top1 inhibitory activity level (Top1): ++
- IC50 (Tdp1): 12000 to 37000 nM
- IC50 (recombinant human TDP2): 12000 to 37000 nM
- melting point: 211 to 213 °C
- GI50 (SN12C): 214 nM
- GI50 (MCF-7): 16 nM
- GI50 (HOP-62): 81 nM
- GI50 (SF-539): 191 nM
- GI50 (UACC-62): 183 nM
- GI50 (OVCAR-3): 171 nM
- GI50 [1, 2]: 562 nM

Compound: COc1cnc2c(c1)C(=O)c1c-2n(CCCN2CCNCC2)c(=O)c2cc([N+](=O)[O-])ccc12 [Compound 10, 7-Aza-5,6-dihydro-9-methoxy-3-nitro-5,11-dioxo-6-[3-(piperazine-1-yl)propyl]-11H-indeno[1,2-c]isoquinoline]
- Enzyme Inhibitory Activity Top1 (Top1): ++
- Top1 inhibitory activity level (Top1): ++
- IC50 (Tdp1): 12000 to 37000 nM
- IC50 (recombinant human TDP2): 37000 to 111000 nM
- melting point: 134 to 135 °C
- GI50 (SN12C): 230 nM
- GI50 (MCF-7): 36 nM
- GI50 (HOP-62): 65 nM
- GI50 (SF-539): 355 nM
- GI50 (UACC-62): 175 nM
- GI50 (OVCAR-3): 1190 nM
- GI50 [1, 2]: 316 nM

Compound: CNCCCn1c2c(c3ccc([N+](=O)[O-])cc3c1=O)C(=O)c1cc(OC)cnc1-2 [Compound 11]
- Enzyme Inhibitory Activity Top1 (Top1): +++
- Top1 inhibitory activity level (Top1): +++
- IC50 (Tdp1): 1000 to 12000 nM
- IC50 (recombinant human TDP2): 37000 to 111000 nM
- melting point: 259 to 262 °C
- GI50 (SN12C): 46 nM
- GI50 (MCF-7): 1060 nM
- GI50 (HOP-62): 30 nM
- GI50 (SF-539): 51 nM
- GI50 (UACC-62): 20 nM
- GI50 (OVCAR-3): 174 nM
- GI50 [1, 2]: 741 nM
- GI50 ([1]; read-out: MGM (GI50 mean graph midpoint)): 714 nM
